Data on five compounds can be found in patent US20080255155A1, “KINASE INHIBITORS AND USES THEREOF” (priority 2006, published 2008).

A value given as a limit tells only on which side of the number the result lay.

Experiment [1] has as its target T1, VEGF receptor KDR (Homo sapiens, UniProt P35968).
T1 construct: made in house; host or cells: Sf9 cells (Spodoptera frugiperda), recombinant baculovirus
Kind of experiment: In vitro receptor tyrosine kinase assay, VEGF receptor KDR (DELFIA). Type of experiment: biochemical. The settings on record: ATP 0.6 uM, enzyme 5 nM; read-out: Potency in enzyme assays VEGF. The source says:
(§1) These tests measure the ability of compounds to inhibit the enzymatic activity of recombinant human c-Met/HGF receptor and VEGF receptor enzymatic activity.
In the case of VEGF receptor KDR a 1.6-kb cDNA corresponding to the catalytic domain of VEGFR2 or KDR (Genbank accession number AF035121 amino acid 806 to 1356) is cloned into the Pst I site of the pDEST20 Gateway vector (Invitrogen) for the production of a GST-tagged version of that enzyme. This construct is used to generate recombinant baculovirus using the Bac-to-Bac system according to the manufacturer's instructions (Invitrogen).
The GST-VEGFR2806-1356 protein is expressed in Sf9 cells (Spodoptera frugiperda) upon infection with recombinant baculovirus construct. Briefly, Sf9 cells grown in suspension and maintained in serum-free medium (Sf900 II supplemented with gentamycin) at a cell density of about 2×10^6 cells/ml are infected with the above-mentioned viruses at a multiplicity of infection (MOI) of 0.1 during 72 hours at 27° C. with agitation at 120 rpm on a rotary shaker. Infected cells are harvested by centrifugation at 398 g for 15 min. Cell pellets are frozen at −80° C. until purification is performed.
All steps described in cell extraction and purification are performed at 4° C. Frozen Sf9 cell pellets infected with the GST-VEGFR2806-1356 recombinant baculovirus re thawed and gently resuspended in Buffer A (PBS pH 7.3 supplemented with 1 μg/ml pepstatin, 2 μg/ml Aprotinin and leupeptin, 50 μg/ml PMSF, 50 μg/ml TLCK and 10 μM E64 and 0.5 mM DTT) using 3 ml of buffer per gram of cells. Suspension is Dounce homogenized and 1% Triton X-100 is added to the homogenate after which it is centrifuged at 22500 g, 30 min., 4° C. The supernatant (cell extract) is used as starting material for purification of GST-VEGFR2806-1356.
The supernatant is loaded onto a GST-agarose column (Sigma) equilibrated with PBS pH 7.3. Following a four column volume (CV) wash with PBS pH 7.3+1% Triton X-100 and 4 CV wash with buffer B (50 mM Tris pH 8.0, 20% glycerol and 100 mM NaCl), bound proteins are step eluted with 5 CV of buffer B supplemented with 5 mM DTT and 15 mM glutathion. GST-VEGFR2806-1356 enriched fractions from this chromatography step are pooled based on U.V. trace i.e. fractions with high O.D^-280- Final GST-VEGFR2806-1356 protein preparations concentrations are about 0.7 mg/ml with purity approximating 70%. Purified GST-VEGFR2806-1356 protein stocks are aliquoted and frozen at −80° C. prior to use in enzymatic assay.
Inhibition of c-Met/HGF receptor and VEGFR/KDR is measured in a DELFIA™ assay (Perkin Elmer). The substrate poly(Glu4,Tyr) is immobilized onto black high-binding polystyrene 96-well plates. The coated plates are washed and stored at 4° C. During the assay, enzymes are pre-incubated with inhibitor and Mg-ATP on ice in polypropylene 96-well plates for 4 minutes, and then transferred to the coated plates. The subsequent kinase reaction takes place at 30° C. for 10-30 minutes. ATP concentrations in the assay are 10 uM for C-Met (5× the Km) and 0.6 uM for VEGFR/KDR (2× the Km). Enzyme concentration is 25 nM (C-Met) or 5 nM (VEGFR/KDR). After incubation, the kinase reactions are quenched with EDTA and the plates are washed. Phosphorylated product is detected by incubation with Europium-labeled anti-phosphotyrosine MoAb. After washing the plates, bound MoAb is detected by time-resolved fluorescence in a Gemini SpectraMax reader (Molecular Devices). Compounds are evaluated over a range of concentrations and IC50's (concentration of compounds giving 50% inhibition of enzymatic activity) are determined.

The subject of experiment [2] is A549. Kind of experiment: A549 wound healing inhibition. The conditions noted are these: Homo sapiens; A549 cells; read-out: Potency in cell-based assays A549 wound healing inhibition.
The target in experiment [3] is T2, recombinant human c-Met/HGF receptor (Homo sapiens, UniProt P08581).
T2 construct: His tag; made in house; host or cells: Hi-5 cells (Trichoplusia ni), recombinant baculovirus
Kind of experiment: In vitro receptor tyrosine kinase assay, c-Met (DELFIA). The class given is biochemical. The conditions noted are these: ATP 10 uM, enzyme 25 nM; read-out: Potency in enzyme assays Cmet.
Description: as §1
A 1.3-kb cDNA corresponding to the intracellular domain of c-Met or c-Met IC (Genbank accession number NP000236-1 amino acid […]) is cloned into the BamHI/XhoI sites of the pBlueBacHis2A vector (Invitrogen) for the production of a histidine-tagged version of that enzyme. This construct is used to generate recombinant baculovirus using the Bac-N-Blue™ system according to the manufacturer's instructions (Invitrogen).
The c-Met IC protein is expressed in Hi-5 cells (Trichoplusia Ni) upon infection with recombinant baculovirus construct. Briefly, Hi-5 cells grown in suspension and maintained in serum-free medium (Sf900 II supplemented with gentamycin) at a cell density of about 2×10^6 cells/ml are infected with the above-mentioned viruses at a multiplicity of infection (MOI) of 0.2 during 72 hours at 27° C. with agitation at 120 rpm on a rotary shaker. Infected cells are harvested by centrifugation at 398 g for 15 min. Cell pellets are frozen at −80° C. until purification is performed.
All steps described in cell extraction and purification are performed at 4° C. Frozen Hi-5 cell pellets infected with the C-Met IC recombinant baculovirus are thawed and gently resuspended in Buffer A (20 mM Tris pH 8.0, 10% glycerol, 1 μg/ml pepstatin, 2 μg/ml Aprotinin and leupeptin, 50 μg/ml PMSF, 50 μg/ml TLCK and 10 μM E64, 0.5 mM DTT and 1 mM Levamisole) using 3 ml of buffer per gram of cells. The suspension is Dounce homogenized after which it is centrifuged at 22500 g, 30 min., 4° C. The supernatant (cell extract) is used as starting material for purification of c-Met IC.
The supernatant is loaded onto a QsepharoseFF column (Amersham Biosciences) equilibrated with Buffer B (20 mM Tris pH 8.0, 10% glycerol) supplemented with 0.05M NaCl. Following a ten column volume (CV) wash with equilibration buffer, bound proteins are eluted with a 5 CV salt linear gradient spanning from 0.05 to 1M NaCl in Buffer B. Typically, the conductivity of selected fractions rank between 6.5 and 37 mS/cm. This Qsepharose eluate has an estimated NaCl concentration of 0.33M and is supplemented with a 5M NaCl solution in order to increase NaCl concentration at 0.5M and also with a 5M Imidazole (pH 8.0) solution to achieve a final imidazole concentration of 15 mM. This material is loaded onto a HisTrap affinity column (GE Healthcare) equilibrated with Buffer C (50 mM NaPO4 pH 8.0, 0.5M NaCl, 10% glycerol) supplemented with 15 mM imidazole. After a 10 CV wash with equilibration buffer and an 8 CV wash with buffer C+40 mM imidazole, bound proteins are eluted with an 8 CV linear gradient (15 to 500 mM) of imidazole in buffer C. C-Met IC enriched fractions from this chromatography step are pooled based on SDS-PAGE analysis. This pool of enzyme undergoes buffer exchange using PD-10 column (GE Healthcare) against buffer D (25 mM HEPES pH 7.5, 0.1M NaCl, 10% glycerol and 2 mM β-mercaptoethanol). Final C-Met IC protein preparations concentrations are about 0.5 mg/ml with purity approximating 80%. Purified c-Met IC protein stocks are supplemented with BSA at 1 mg/ml, aliquoted and frozen at −80° C. prior to use in enzymatic assay.
Inhibition of c-Met/HGF receptor and VEGFR/KDR is measured in a DELFIA™ assay (Perkin Elmer). The substrate poly(Glu4,Tyr) is immobilized onto black high-binding polystyrene 96-well plates. The coated plates are washed and stored at 4° C. During the assay, enzymes are pre-incubated with inhibitor and Mg-ATP on ice in polypropylene 96-well plates for 4 minutes, and then transferred to the coated plates. The subsequent kinase reaction takes place at 30° C. for 10-30 minutes. ATP concentrations in the assay are 10 uM for C-Met (5× the Km) and 0.6 uM for VEGFR/KDR (2× the Km). Enzyme concentration is 25 nM (C-Met) or 5 nM (VEGFR/KDR). […]

Experiment [4] deals with DU145. Kind of experiment: DU145 scattering inhibition. The settings on record: Homo sapiens, DU-145; DU145 cells; read-out: Potency in cell-based assays DU145 scattering inhibition.

T2 sequence (P08581 1078-1337): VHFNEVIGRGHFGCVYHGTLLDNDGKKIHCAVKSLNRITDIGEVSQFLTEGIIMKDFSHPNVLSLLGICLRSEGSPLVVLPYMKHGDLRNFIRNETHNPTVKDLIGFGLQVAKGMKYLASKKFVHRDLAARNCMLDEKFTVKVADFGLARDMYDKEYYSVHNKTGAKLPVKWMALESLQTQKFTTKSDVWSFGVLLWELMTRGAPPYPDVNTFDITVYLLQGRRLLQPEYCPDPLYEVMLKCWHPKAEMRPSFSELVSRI
T1 sequence (P35968 806-1356): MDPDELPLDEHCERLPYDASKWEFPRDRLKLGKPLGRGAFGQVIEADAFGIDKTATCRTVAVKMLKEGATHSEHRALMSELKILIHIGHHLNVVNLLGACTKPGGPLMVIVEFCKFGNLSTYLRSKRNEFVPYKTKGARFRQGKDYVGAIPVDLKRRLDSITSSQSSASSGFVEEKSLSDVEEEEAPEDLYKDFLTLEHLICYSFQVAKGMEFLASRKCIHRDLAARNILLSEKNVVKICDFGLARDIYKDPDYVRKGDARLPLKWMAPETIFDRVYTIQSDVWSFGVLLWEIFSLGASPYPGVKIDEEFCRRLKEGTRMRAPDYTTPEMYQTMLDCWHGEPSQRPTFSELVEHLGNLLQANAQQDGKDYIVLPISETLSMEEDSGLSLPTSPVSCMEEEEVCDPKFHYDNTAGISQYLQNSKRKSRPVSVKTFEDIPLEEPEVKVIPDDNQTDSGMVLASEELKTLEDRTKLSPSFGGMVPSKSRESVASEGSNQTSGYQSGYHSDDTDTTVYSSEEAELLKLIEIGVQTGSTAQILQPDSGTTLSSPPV

Regarding `CN(C)CCCOC(=O)Nc1cc(Oc2ccc(NC(=O)N3CCN(c4ccccc4)C3=O)cc2F)ccn1` [Compound 18i, 3-(dimethylamino)propyl4-(2-fluoro-4-(2-oxo-3-phenylimidazolidine-1-carboxamido)phenoxy),pyridin-2-ylcarbamate], the IC50 in experiment [1] was at least 1000 nM; in experiment [2], 1000 to 5000 nM; in experiment [3], below 250 nM; in experiment [4], 1000 to 5000 nM.

On to `CN(C)[C@H]1CCN(C(=O)Nc2cc(Oc3ccc(NC(=O)N4CCN(c5ccccc5)C4=O)cc3F)ccn2)C1` [Compound 18f, (S)-N-(4-(2-(3-(dimethylamino)pyrrolidine-1-carboxamido)pyridin-4-yloxy)-3-fluorophenyl)-2-oxo-3-phenylimidazolidine-1-carboxamide], for which the IC50 was below 250 nM in experiment [1], 1000 to 5000 nM in experiment [2], below 250 nM in experiment [3] and at least 1000 nM in experiment [4].

Consider `O=C(Nc1ccc(Oc2ccncc2)c(F)c1)N1CCN(c2cccc(C(F)(F)F)c2)C1=O` [Compound 21c, N-(3-fluoro-4-(pyridin-4-yloxy)phenyl)-2-oxo-3-(3-(trifluoromethyl)phenyl)imidazolidine-1-carboxamide], for which the IC50 in experiment [1] was at least 1000 nM; in experiment [2], 5000 to 10000 nM; in experiment [3], at least 1000 nM; in experiment [4] it was 5000 to 10000 nM.

For `CN(C)[C@@H]1CCN(C(=O)Nc2cc(Oc3ccc(NC(=O)N4CCN(c5ccc(F)cc5)C4=O)cc3F)ccn2)C1` [Compound 18g, (R)-N-(4-(2-(3-(dimethylamino)pyrrolidine-1-carboxamido)pyridin-4-yloxy)-3-fluorophenyl)-3-(4-fluorophenyl)-2-oxoimidazolidine-1-carboxamide], the IC50 was below 250 nM in experiment [1], at least 1000 nM in experiment [2], below 250 nM in experiment [3] and at least 1000 nM in experiment [4].

Consider `O=C(Nc1ccc(Oc2ccncc2)c(F)c1)N1CCN(c2ccc(Cl)cc2)C1=O` [Compound 21f, 3-(4-chlorophenyl)-N-(3-fluoro-4-(pyridin-4-yloxy)phenyl)-2-oxoimidazolidine-1-carboxamide], for which the IC50 in experiment [1] is at least 1000 nM; in experiment [2] it was 1000 to 5000 nM; in experiment [3], 250 to 500 nM; in experiment [4], 5000 to 10000 nM.
